In article PMC13327620, “A Deep‐Red‐Absorbing Osmium(II) Complex as a Photosensitizer for Photodynamic Therapy Inducing Immunogenic Cell Death” (Angewandte Chemie (International Ed. in English), 2026):
Where two headings read alike, the source gives them in different places.

Columns and labels:
[1] = system: mouse colon adenocarcinoma (CT-26) cells; test: Resazurin cell viability assay, (photo)cytotoxicity under hypoxia (1% O2); assay type: cell-based
Procedure: (100 U ml−1), streptomycin (100 U ml−1), and 1% L-glutamine. The murine fibrosarcom a (MCA205) cells were cultured in RPMI 1640 medium with 10% fetal bovine serum (FBS), penicillin (100 U ml−1), streptomycin (100 U ml−1), and 1% L-glutamine. All cells were incubated at 37 °C in a humidified atmosphere with 5 % CO2.
Normoxia. The in vitro viability of cells exposed to the complexes was determined using a resazurin assay. C ells were seeded in 96-well plates at densities of 4,000 cells/well for CT26, MC A205 and U-87 MG cells, and 8,000 cells/well for MRC-5 and NIH/3T3 cells. A fter 24 h of growth at 37 °C wit h 5% CO2, the medium was replaced with fresh medium containing various concentrations of the compounds . […] After a 40- h r ecov ery period, a f reshly pr epar ed resazurin solution (0.2 mg/mL) was added to each well, and the plates were left in the dark for 4 h before analysis on a B i o Te k Cytation 5 Cell Imaging Multimode Reader (Agil ent Technologies). […]
Non-irradiat ed plates were similarly refreshed with medium and k ept in th e d ark fo r the same duration. After a 40 -h recovery period, a f res hly prepar ed resazurin solution (0.2 mg/mL) was added to each well, and the plates were left in the dark for 4 h before analysis on a BioTek Cytation 5 Cell Imaging Multimode Reader (Agilent […]

CT26‐luc cells = test: In vivo vaccination and rechallenge, CT26-luc model; set-up: species or system BALB/c mice
Procedure: The ability to stimulate ICD in vivo was evaluated using a CT26‐luc vaccination and rechallenge model, following the gold‐standard method (Figure 5A). The mice were randomly assigned to groups and injected subcutaneously on the left flank with PBS solution, CT26‐luc cells pre‐treated with either 600 µM Cisplatin in the dark, 6.5 µM Ce6, or 1.8 µM Os2 upon 740 nm LED light irradiation (60 min, 12.6 J cm^−2). After 7 days, all the mice were rechallenged by subcutaneous injection of untreated live CT26‐luc cells on the right flank. […] However, by day 15, tumors in the PBS‐treated (control) group grew rapidly, reaching an average tumor volume of 717 ± 190 mm^3.
The BALB/c female mice were randomly divided into 4 groups with each group containing 5 mice, which were named as Control group, Cisplatin group, Ce6 group and Os2 group. CT26-luc cells wer e treat ed in vitro with 600 µM Cisplatin in the dark, 6.5 µM Ce6 or 1.8 µM Os2 upon 740 nm LED light irradiation (60 min, 12.6 J cm-2) following the methods described above. Subsequently, treated CT26-luc cells (3×10^5 cells in 100 µ L sterile PBS) or 100 µ L sterile PB S were injected subcutaneously into the left flank of each mouse. One week later, mice were r echalleng ed by injection with untreated CT26- luc cells (1×10^6 cells in 100 µL sterile PBS). The mice were monitored by an in vivo imaging system (Biospace Lab, Photon Imager Optima) and the tumor volume was calculated with the following equation: tumor volume = width 2 × length × […]
In vivo vaccination study on MCA205 cells
The C57BL/6 mice were randomly divided into 5 groups with each group containing 10 mice, whi ch w ere nam ed as Control group, Cisplatin group, Oxaliplatin group, Ce6 group and Os2 group. M CA205 cells were treated in vitro with 500 µM Cisplatin o r 1400 µM Oxaliplatin in the dark, 5.5 µM Ce6 or 3 µM Os2 upon 740 nm LED light irradiation (60 min, 12.6 J cm-2) following the methods described above. […] The tumor volume was calculated with the following equation: tumor volume =

`C=Cc1c(C)c2cc3nc(c(CC(=O)O)c4[nH]c(cc5nc(cc1[nH]2)C(C)=C5CC)c(C)c4C(=O)O)[C@@H](CCC(=O)O)[C@@H]3C` [Ce6, chlorin e6] was tested, and the IC50 ([1]; CT26, CT-26, hypoxia (1% O2), dark, read-out: IC50 Dark) was greater than 100 µM, the IC50 ([1]; CT26, light or radiation study, 1 h, CT-26, hypoxia (1% O2), 740 nm, 60 min, 12.60 J/cm2, read-out: IC50 740 nm) was 5.63 ± 0.41 µM and the “Mice with tumors completely ablated” value (CT26‐luc cells; by day 40, n = 5 per group) was “one mouse”. For the same molecule, the “Tumor volume, times smaller than control group” value (CT26‐luc cells; day 15 after rechallenge, vaccination with CT26‐luc cells pre-treated with 6.5 µM Ce6 or 1.8 µM Os2 + 740 nm) was 1.7 and the Survival (CT26‐luc cells; up to 40 days after rechallenge, compared to the other groups) was “prolonged survival periods”.
